Source: PubChem BioAssay (NCI)
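How tested: cells in 96-well plates exposed to compound for 48 hours at five concentrations. TGI marks complete inhibition of growth.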

Experiments:
Test in all cases: NCI-60 cell line screen, 48 h
[1] = tested on: MDA-MB-231 breast
[2] = tested on: K-562 leukemia
[3] = tested on: HCT-116 colon
[4] = tested on: CAKI-1 renal
[5] = tested on: SR leukemia
[6] = tested on: T-47D breast
[7] = tested on: HT29 colon
[8] = tested on: COLO 205 colon
[9] = tested on: DU-145 prostate
[10] = tested on: ACHN renal
[11] = tested on: EKVX NSCLC
[12] = tested on: NCI/ADR-RES ovarian
[13] = tested on: SF-268 CNS
[14] = tested on: U251 CNS
[15] = tested on: HCC-2998 colon
[16] = tested on: SK-MEL-2 melanoma
[17] = tested on: MOLT-4 leukemia
[18] = tested on: HOP-62 NSCLC
[19] = tested on: UO-31 renal
[20] = tested on: OVCAR-5 ovarian
[21] = tested on: IGROV1 ovarian
[22] = tested on: HS 578T breast
[23] = tested on: CCRF-CEM leukemia
[24] = tested on: MDA-MB-435
[25] = tested on: SF-295 CNS
[26] = tested on: M14 melanoma
[27] = tested on: UACC-62 melanoma
[28] = tested on: NCI-H23 lung
[29] = tested on: BT-549 breast
[30] = tested on: KM12 colon
[31] = tested on: LOX IMVI melanoma
[32] = tested on: RXF 393 renal
[33] = tested on: UACC-257 melanoma
[34] = tested on: SK-MEL-5 melanoma
[35] = tested on: NCI-H226 lung
[36] = tested on: HL-60(TB) leukemia
[37] = tested on: SK-MEL-28 melanoma
[38] = tested on: NCI-H522 lung
[39] = tested on: MALME-3M melanoma
[40] = tested on: SW-620 colon
[41] = tested on: OVCAR-4 ovarian
[42] = tested on: HCT-15 colon
[43] = tested on: MDA-N
[44] = tested on: SN12C renal
[45] = tested on: A498 renal
[46] = tested on: SNB-19 CNS
[47] = tested on: PC-3 prostate
[48] = tested on: OVCAR-3 ovarian
[49] = tested on: 786-0 renal
[50] = tested on: RPMI-8226 leukemia
[51] = tested on: A549 NSCLC
[52] = tested on: TK-10 renal
[53] = tested on: HOP-92 NSCLC
[54] = tested on: MCF7 breast
[55] = tested on: OVCAR-8 ovarian
[56] = tested on: SK-OV-3 ovarian
[57] = tested on: SNB-75 CNS
[58] = tested on: SF-539 CNS
[59] = tested on: NCI-H460 lung

With `N#CC(c1ccccc1)N(CCc1ccccc1)C(=O)Oc1ccccc1` (centres undefined) the TGI [1] was over 100 µM, the TGI [2] was over 100 µM and the TGI [3] was over 100 µM. The TGI [4] was over 100 µM, the TGI [5] was over 100 µM and the TGI [6] was over 100 µM. It also gave a TGI [7] of over 100 µM, a TGI [8] of over 100 µM and a TGI [9] of over 100 µM. For the same molecule, the TGI [10] was over 100 µM, the TGI [11] was over 100 µM and the TGI [12] was over 100 µM. For the same molecule, the TGI [13] was over 100 µM, the TGI [14] was over 100 µM and the TGI [15] was over 100 µM. For the same molecule, the TGI [16] was over 100 µM, the TGI [17] was over 100 µM and the TGI [18] was over 100 µM. For the same molecule, the TGI [19] was over 100 µM, the TGI [20] was over 100 µM and the TGI [21] was over 100 µM. It also gave a TGI [22] of over 100 µM, a TGI [23] of over 100 µM and a TGI [24] of over 100 µM. The TGI [25] was over 100 µM, the TGI [26] was over 100 µM and the TGI [27] was over 100 µM. For the same molecule, the TGI [28] was over 100 µM, the TGI [29] was over 100 µM and the TGI [30] was over 100 µM. The TGI [31] was over 100 µM, the TGI [32] was over 100 µM and the TGI [33] was over 100 µM. For the same molecule, the TGI [34] was over 100 µM, the TGI [35] was over 100 µM and the TGI [36] was over 100 µM. For the same molecule, the TGI [37] was over 100 µM, the TGI [38] was over 100 µM and the TGI [39] was over 100 µM. For the same molecule, the TGI [40] was over 100 µM, the TGI [41] was over 100 µM and the TGI [42] was over 100 µM. For the same molecule, the TGI [43] was over 100 µM, the TGI [44] was over 100 µM and the TGI [45] was over 100 µM. For the same molecule, the TGI [46] was over 100 µM, the TGI [47] was over 100 µM and the TGI [48] was over 100 µM. The TGI [49] was over 100 µM, the TGI [50] was over 100 µM and the TGI [51] was over 100 µM. It also gave a TGI [52] of over 100 µM, a TGI [53] of 95.7 µM and a TGI [54] of over 100 µM. For the same molecule, the TGI [55] was over 100 µM, the TGI [56] was over 100 µM and the TGI [57] was 74.7 µM. For the same molecule, the TGI [58] was over 100 µM.
Work on `COc1cc(NCc2ccc3n2-c2ccccc2OC3)cc(OC)c1OC` yielded a TGI [1] of 34.1 µM, a TGI [2] of 27.6 µM and a TGI [3] of over 100 µM. It also gave a TGI [4] of 74.5 µM, a TGI [5] of 35.6 µM and a TGI [6] of over 100 µM. For the same molecule, the TGI [7] was over 100 µM, the TGI [8] was 25.5 µM and the TGI [9] was over 100 µM. For the same molecule, the TGI [10] was over 100 µM, the TGI [11] was 45.1 µM and the TGI [12] was 22.5 µM. It also gave a TGI [13] of over 100 µM, a TGI [14] of over 100 µM and a TGI [15] of 51.6 µM. For the same molecule, the TGI [16] was 69.2 µM, the TGI [18] was over 100 µM and the TGI [19] was 60 µM. For the same molecule, the TGI [20] was over 100 µM, the TGI [21] was 70.5 µM and the TGI [22] was over 100 µM. It also gave a TGI [23] of 44.3 µM, a TGI [24] of 33.8 µM and a TGI [25] of 63.9 µM. The TGI [26] was over 100 µM, the TGI [27] was 43.4 µM and the TGI [28] was over 100 µM. It also gave a TGI [29] of 67.3 µM, a TGI [30] of over 100 µM and a TGI [31] of 27.4 µM. It also gave a TGI [32] of 87.5 µM, a TGI [33] of 64.1 µM and a TGI [34] of 32.3 µM. For the same molecule, the TGI [35] was over 100 µM, the TGI [36] was 57.2 µM and the TGI [37] was over 100 µM. The TGI [38] was 40.7 µM, the TGI [39] was 50.9 µM and the TGI [40] was over 100 µM. It also gave a TGI [41] of 55.5 µM, a TGI [42] of over 100 µM and a TGI [43] of 72.4 µM. For the same molecule, the TGI [59] was over 100 µM, the TGI [44] was 45.5 µM and the TGI [45] was 33.8 µM. It also gave a TGI [46] of over 100 µM, a TGI [47] of 87.1 µM and a TGI [48] of 75.5 µM. The TGI [49] was over 100 µM, the TGI [50] was 26.9 µM and the TGI [51] was over 100 µM. It also gave a TGI [52] of over 100 µM, a TGI [53] of 51.3 µM and a TGI [54] of 40.6 µM. For the same molecule, the TGI [55] was over 100 µM and the TGI [57] was 62.4 µM.
